Measured values taken from ChEMBL document CHEMBL5338806, “Rationally Designed Nonapeptides with Great Skin Photoprotective Effect through Producing Type 1 Collagen and Blocking the mTOR Pathway” (J Med Chem, 2023).
Calls of active or inactive are those of the source. The calls are words filed in the database; no cut-off is given here. Where a SMILES comes first, the peptide text is derived from it.

Assays:
HEK293 = experiment: Activation of COL1a2 transcriptional activity in HEK293 cells by dual-luciferase reporter assay; type: functional, cell-based; settings: Homo sapiens
Mus musculus = experiment: Protection against UV radiation-stress induced skin damage in Kunming mouse model assessed as repair of broken skin at 20 ug/ml administered topically and measured every 2 days for 10 days; type: functional, organism-based; settings: dose 20.0 µg/ml, route top, time 10.0 day
[1] = Antioxidant activity assessed as ABTS radical scavenging activity at 80 ug/mL incubated for 10 mins by absorbance based assay; type: functional; settings: dose 80.0 µg/ml
[2] = Antioxidant activity assessed as ROS scavenging activity; type: functional
[3] = Antioxidant activity assessed as DPPH radical scavenging activity by measuring eradication rate at 80 ug/mL incubated for 30 mins by absorbance based assay relative to control; type: functional; settings: dose 80.0 µg/ml

Structure (SMILES)	Activity (HEK293)	Activity (Mus musculus)	Activity [1]	Activity [2]	Activity [3] [%]
CC(C)C[C@H](NC(=O)[C@H](Cc1c[nH]c2ccccc12)NC(=O)[C@@H]1CCCN1C(=O)[C@@H]1CCCN1C(=O)[C@H](CC(C)C)NC(=O)[C@@H](N)CC(C)C)C(=O)N[C@@H](CCCNC(=N)N)C(=O)N1CCC[C@H]1C(=O)N[C@@H](CCCCN)C(=O)N[C@@H](CS)C(=O)N[C@@H](CO)C(=O)O (H-LLPPWLRPKCS-OH)	Active				
CC(C)C[C@H](NC(=O)[C@@H](N)C(C)C)C(=O)N[C@@H](CCCCN)C(=O)N[C@@H](CCCCN)C(=O)N[C@@H](CS)C(=O)O (H-VLKKC-OH)	Active	Active	Active	Active	96.8
CC(C)C[C@H](NC(=O)[C@@H](N)C(C)C)C(=O)N1CCC[C@H]1C(=O)N[C@@H](CCCCN)C(=O)N[C@@H](CS)C(=O)N[C@@H](Cc1c[nH]c2ccccc12)C(=O)O (H-VLPKCW-OH)				Active	
CC(C)C[C@H](NC(=O)[C@H](CCCCN)NC(=O)[C@@H]1CCCN1C(=O)[C@H](CC(C)C)NC(=O)[C@@H](N)C(C)C)C(=O)N[C@@H](CCC(=O)O)C(=O)N[C@@H](CS)C(=O)N[C@H](C(=O)N[C@@H](Cc1c[nH]c2ccccc12)C(=O)O)C(C)C (H-VLPKLECVW-OH)	Active				
